From patent US20260327239A1, “COMPOUNDS FOR COVALENT INHIBITION OF SHP2” (Purdue Research Foundation, priority 2023, published 2026)
“Also recorded” adds a separate entry of the source. Where two headings read alike, the source gives them in different places.

Experiments:
SHP2 (residues 224-528) = target: T1, SHP2 (residues 224-528) (Homo sapiens, UniProt Q06124); assay: Kinetic characterization of SHP2 inactivation (pNPP cleavage progress curves, kobs, kinact/KI); format: biochemical; details: for kinact/KI / KI (inactivation) / kinact: substrate pNPP 3 mM, 100 nM SHP2, pH 7.0, 25° C; for fold decrease in efficacy: comparator not given
T1 construct: 4× solution of SHP2 (residues 224-528)
T1 sequence (Q06124 224-528): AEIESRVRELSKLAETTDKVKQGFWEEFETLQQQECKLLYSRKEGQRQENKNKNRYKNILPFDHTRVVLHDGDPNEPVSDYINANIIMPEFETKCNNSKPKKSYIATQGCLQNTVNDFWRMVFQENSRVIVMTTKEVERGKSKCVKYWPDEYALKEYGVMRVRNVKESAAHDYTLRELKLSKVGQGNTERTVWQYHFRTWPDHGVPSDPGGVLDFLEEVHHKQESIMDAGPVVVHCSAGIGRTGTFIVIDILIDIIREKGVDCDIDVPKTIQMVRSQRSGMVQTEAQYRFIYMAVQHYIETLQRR
From the text: Covalent inhibitors work by forming a covalent bond with a reactive functional group in the target enzyme. Consequently, the kinetics for enzyme inactivation by a covalent inhibitor is not an equilibrium process as with reversible inhibition. The potency of a reversible inhibitor can be measured by its IC50 value. Unlike reversible inhibitors, where inhibition is only concentration-dependent, covalent inhibitors show both time- and concentration-dependent target inhibition (a covalent bond formation is a time-dependent event). If sufficient time is available, covalent inhibitors can completely neutralize the target, rather than go to equilibrium. As a result, the potency and selectivity of a covalent inhibitor cannot be determined by IC50 values; instead, the rate of inactivation of the target (kinact) and the inhibition constant (KI) were determined. The bimolecular rate constant (kinact/KI), was chosen to rank the potency of covalent inhibitors (Ruddraraju et al., 2017, Molecular Biosystems 13(7), 1257-1279).
PTPs catalyze the dephosphorylation of tyrosine-phosphorylated protein substrates through a conserved mechanism that relies on a catalytic cysteine residue (Zhang, Z.-Y et al., 2003, Prog. Nucleic Acid Research Molecular Biology, 73, 171-220). This provides a mechanistic rationale for the assessment of electrophilic Michael acceptors, such as those synthesized in the present disclosure as potential covalent inhibitors of the SHP2. The enzymatic cleavage of para-nitrophenyl phosphate by SHP2 was measured over time in the presence of 100 μM inhibitor or DMSO, to determine the observed first-order rate constant (kobs). Based on kobs values, compounds were further evaluated in a dose-dependent manner to determine the second-order rate constant (kinact/KI) indicating the overall efficacy of the compounds, which was used to assess the structure-activity relationship (SAR) for the analogs of interest and design additional analogs (see Table 1). […] It has been known that modifications to the electronegativity of substituents proximal to electrophilic centers alter the reactivity of the electrophile.
The efficacy of covalent inhibitors can be broken down into the initial reversible binding of the compounds (KI), and the rate of covalent bond formation and enzyme inactivation (kinact). These two constants can be used individually, or as a ratio to determine the overall efficacy of the inhibitor's efficacy. To investigate the contribution to reversible binding compound (34) was evaluated, which lacks the carbonyl of the Michael acceptor to prevent the formation of a covalent adduct.
Inhibitors were evaluated for their ability to inhibit the reaction catalyzed by SHP2 using para-nitrophenyl phosphate (pNPP) as a substrate at pH 7 and 25° C. A 2× solution of inhibitor was diluted into DMG buffer (50 mM 3,3-dimethylglutarate pH 7.0, 1 mM EDTA, ionic strength adjusted to 150 mM using NaCl) was added to a clear flat-bottom 96-well plate (Corning Costar Assay Plate #9017), and serially diluted 1.5-fold, resulting in 100 μL volumes of varying inhibitor concentrations. To this was added a 4× solution of pNPP (12 mM) in DMG buffer. The reaction was initialized by the addition of a 4× solution of SHP2 (residues 224-528), resulting in a final solution of: inhibitor (100-0 μM), pNPP (3 mM), and SHP2 (100 nM). The plate was then monitored for a change in absorbance ab […] using a CLARIOstar^Plus plate reader (BMG Labetch) over the course of an hour. The resulting progress curves for each inhibitor were imported into Graphpad Prism 9 (GraphPad Software, San Diego, CA (USA)), and a baseline correction analysis was completed for fitting purposes. Each curve was fit to the equation Y=V0×(1−e^−kobs*t)/kobs.^[17.22] The kobs values were then plotted against inhibitor concentrations. If the resulting graph was linear, the kinact/KI value was determined by the slope of that line and the 95% confidence interval (95% CI). […]

SHP2 = target: T2, SHP2 (Homo sapiens, UniProt Q06124); assay: Covalent adduct formation on SHP2 by intact protein LC-MS; format: binding; details: 10 μM SHP2, 60 minutes; for % SHP2 Reacted (overall adduct formation): PVSN at 20 μM, compound 37 at 10 μM; for Found Ligand Adduct (mass shift): intact protein LC-MS
T2 construct: 4× solution of SHP2 (residues 224-528)
T2 sequence (Q06124 224-528): T1 sequence (Q06124 224-528)
Procedure: To validate covalent modification of SHP2 by the active compounds, adduct formation on SHP2 was measured by intact protein liquid chromatography-mass spectrometry (LC-MS). With intact protein LC-MS, multiply charged states of the protein species can be deconvoluted to achieve the total mass(es). Compounds were incubated with 10 μM SHP2 for 60 minutes before being quenched with acetonitrile for LC-MS analysis by electrospray ionization (ESI) in positive mode. […] (33), and (42) (FIGS. 3A and 3B).
To unfold protein and quench protein-ligand reactivity, 10 μL of treated or untreated 10 μM SHP2 was diluted in 40 μL of 80% (v/v) formic acid initially, followed by 150 μL of LC-MS buffer (50/50 water/acetonitrile with 0.1% formic acid). 20-25 pmol per sample was analyzed by LC/MS (Agilent 1260 Infinity II with a ZORBAX Rapid Resolution High Definition 300 Å Stable Bond C3, 2.1×100 mm, 1.8 μm column) attached to an Agilent 6129 quadrupole mass spectrometer in positive ion mode. The column was held at 45° C. Mobile solution A was 0.1% formic acid in water, and mobile phase B was 0.1% formic acid in acetonitrile. The gradient used was hold at 10% B for 5 min, increase linearly to 80% B for 15 min, and then hold at 80% B for 5 min. The mass data were collected at a range of 600-1500 m/z. Raw data were processed using MestReNova. For all samples, the deconvoluted mass was calculated by taking the m/z range of 730-1100 Da, and deconvoluted mass range from 36500-37200 Da. An abundance threshold of 10% and tolerance of 30 ppm was set for deconvolution. Unreacted SHP2's total deconvoluted mass was 36602±10 Da; for each deconvolution, the highest deconvoluted mass intensity was utilized as the mass pivot point to determine and identify reacted SHP2 adducts. To calculate the percent SHP2 reacted, the relative abundance intensity of reacted SHP2 was divided by the total relative abundance intensities of unreacted and reacted SHP2.

[1] = pH 7, role: inhibitor, read-out: kinact/KI (converted)

Structure (SMILES)	SHP2 inhibition efficacy (in words) (SHP2 (residues 224-528); role: inhibitor)	kinact/KI (SHP2 (residues 224-528); [1])	further results
C=C1CC2(C(=O)N3CCN(c4ccc(Br)cc4)CC3)CC(=O)CC1C2 (stereo not drawn) [Compound 34]	complete loss of SHP2 inhibition efficacy; also recorded: inactive against SHP2; also recorded: complete loss of activity		
C=C1C(=O)[C@@]2(C(=O)N3CCN(c4ccc(C)cc4)CC3)CC(=O)C[C@@H]1C2 [Compound 38]		101 M⁻¹ s⁻¹	KI (inactivation) (SHP2 (residues 224-528); role: inhibitor): 176 µM; kinact (SHP2 (residues 224-528); role: inhibitor): 0.0172 s⁻¹
C=C1C(=O)[C@@]2(C(=O)N3CCN(C(=O)OC(C)(C)C)CC3)CC(=O)C[C@@H]1C2 [Compound 25]	able to inhibit the catalytic activity of SHP2	28.1 M⁻¹ s⁻¹	
C=C1C(=O)[C@@]2(C(=O)N3CCCC3)CC(=O)C[C@@H]1C2 [Compound 17]		13.4 M⁻¹ s⁻¹	
C=CS(=O)(=O)Oc1ccccc1 [PVSN, phenyl vinyl sulfonate, reference compound]		3.52 M⁻¹ s⁻¹	% SHP2 Reacted (overall adduct formation) (SHP2): 21%
C=C1C(=O)[C@@]2(C(=O)N3CCN(c4ccc(-c5ccccc5)cc4)CC3)CC(=O)C[C@@H]1C2 [Compound 41]		311 M⁻¹ s⁻¹	KI (inactivation) (SHP2 (residues 224-528); role: inhibitor): 10.2 µM; kinact (SHP2 (residues 224-528); role: inhibitor): 0.00317 s⁻¹
C=C1C(=O)[C@@]2(C(=O)N3CCCCC3)CC(=O)C[C@@H]1C2 [Compound 19]		19.4 M⁻¹ s⁻¹	
C=C1C(=O)[C@@]2(C(=O)N3CCN(c4ccccc4C#N)CC3)CC(=O)C[C@@H]1C2 [Compound 32]		367 M⁻¹ s⁻¹	fold improvement in efficacy over the unsubstituted piperidine analog (19) (SHP2 (residues 224-528); role: inhibitor, kinact/KI relative to 19): approximately 19 fold; fold increase in efficacy relative to the unsubstituted phenyl ring (SHP2 (residues 224-528); role: inhibitor, kinact/KI relative to unsubstituted phenyl): 9.25 fold
C=C1C(=O)[C@@]2(C(=O)N3CCN(c4ccc(OC)cc4)CC3)CC(=O)C[C@@H]1C2 [Compound 39]		46.5 M⁻¹ s⁻¹	
C=C1C(=O)[C@@]2(C(=O)N(CC)CC)CC(=O)C[C@@H]1C2 [Compound 12]	more effective than compound (11) and the cyclic matched molecular pair (MMP) compound (17)	17.5 M⁻¹ s⁻¹	
C=C1C(=O)[C@@]2(C(=O)N3CCOCC3)CC(=O)C[C@@H]1C2 [Compound 21]		16 M⁻¹ s⁻¹	fold decrease in efficacy (SHP2 (residues 224-528); role: inhibitor): ~2 fold
C=C1C(=O)[C@@]2(C(=O)N3CCN(c4ccc(C(F)(F)F)cc4)CC3)CC(=O)C[C@@H]1C2 [Compound 42]		417 M⁻¹ s⁻¹	Found Ligand Adduct (mass shift) (SHP2): 410 Da; % SHP2 Reacted (overall adduct formation) (SHP2): 43%; fold increase in efficacy over compound 11 (SHP2 (residues 224-528); role: inhibitor, kinact/KI relative to 11): 29 fold; fold increase in efficacy compared to PVSN (SHP2 (residues 224-528); role: inhibitor, kinact/KI relative to PVSN): 119 fold; KI (inactivation) (SHP2 (residues 224-528); role: inhibitor): 47.8 µM; kinact (SHP2 (residues 224-528); role: inhibitor): 0.0199 s⁻¹
C=C1C(=O)[C@@]2(C(=O)N3CCN(c4ccc(F)cc4)CC3)CC(=O)C[C@@H]1C2 [Compound 35]		97.6 M⁻¹ s⁻¹	KI (inactivation) (SHP2 (residues 224-528); role: inhibitor): 112 µM; kinact (SHP2 (residues 224-528); role: inhibitor): 0.0109 s⁻¹
C=C1C(=O)[C@@]2(C(=O)NCCC)CC(=O)C[C@@H]1C2 [Compound 11]	slightly less potent than compound (10)	14.3 M⁻¹ s⁻¹	kinact/KI (SHP2 (residues 224-528); role: inhibitor): 865.8 M^−1Min^−1
C=C1C(=O)[C@@]2(C(=O)N3CCN(c4ccc(C(C)(C)C)cc4)CC3)CC(=O)C[C@@H]1C2 [Compound 40]		291 M⁻¹ s⁻¹	
C=C1C(=O)[C@@]2(C(=O)N3CC4(COC4)C3)CC(=O)C[C@@H]1C2 [Compound 22]		12.9 M⁻¹ s⁻¹	fold decrease in efficacy (SHP2 (residues 224-528); role: inhibitor): ~2 fold
C=C1C(=O)[C@@]2(C(=O)N3CCC(F)(F)CC3)CC(=O)C[C@@H]1C2 [Compound 23]	more effective SHP2 inhibitor	36.8 M⁻¹ s⁻¹	kinact/KI (SHP2 (residues 224-528); role: inhibitor): 2,026.8 M^−1Min^−1
C=C1C(=O)[C@@]2(C(=O)N3CCCCCC3)CC(=O)C[C@@H]1C2 [Compound 20]		22.7 M⁻¹ s⁻¹	
C=C1C(=O)[C@@]2(C(=O)N3CCN(c4ccccc4)CC3)CC(=O)C[C@@H]1C2 [Compound 30]	small improvement in efficacy	39.6 M⁻¹ s⁻¹	
C=C1C(=O)[C@@]2(C(=O)N3CCN(c4ccc(Cl)cc4)CC3)CC(=O)C[C@@H]1C2 [Compound 36]		220 M⁻¹ s⁻¹	
C=C1C(=O)[C@@]2(C(=O)N3CCN(C(C)=O)CC3)CC(=O)C[C@@H]1C2 [Compound 26]	able to inhibit the catalytic activity of SHP2	15.4 M⁻¹ s⁻¹	
C=C1C(=O)[C@@]2(C(=O)N3CCN(c4ccc(Br)cc4)CC3)CC(=O)C[C@@H]1C2 [Compound 33]		367 M⁻¹ s⁻¹	Found Ligand Adduct (mass shift) (SHP2): 412 Da; % SHP2 Reacted (overall adduct formation) (SHP2): 30%; KI (inactivation) (SHP2 (residues 224-528); role: inhibitor): 69.7 µM; kinact (SHP2 (residues 224-528); role: inhibitor): 0.0219 s⁻¹
